Twelve molecules from patent US12398101B2, “Herbicidal 2-azaspiro[3-5]nonane compounds” (SYNGENTA CROP PROTECTION AG, priority 2018, dated 2025) can be followed below.

Molecules are shown by their SMILES.

Assay type in all cases: in vivo
What all share (settings): 250 g/h, evaluated after 13 days

Experiment [1] deals with Setaria faberi (SETFA). The experiment can be described thus: Glasshouse herbicide test, post-emergence application. How it is done: (§1) Seeds of a variety of test species are sown in standard soil in pots (Lolium perenne (LOLPE), Setaria faberi (SETFA), Echinochloa crus-galli (ECHCG), Avena fatua (AVEFA)). After cultivation for one day (pre-emergence) or after 8 days cultivation (post-emergence) under controlled conditions in a glasshouse (at 24/16° C., day/night; 14 hours light; 65% humidity), the plants are sprayed with an aqueous spray solution derived from the formulation of the technical active ingredient in acetone/water (50:50) solution containing 0.5% Tween 20 (polyoxyethelyene sorbitan monolaurate, CAS RN 9005-64-5). Compounds are applied at 250 g/h. The test plants are then grown in a glasshouse under controlled conditions in a glasshouse (at 24/16° C., day/night; 14 hours light; 65% humidity) and watered twice daily. After 13 days for pre and post-emergence, the test is evaluated for the percentage damage caused to the plant. The biological activities are shown in the following table on a five point scale (5=80-100%; 4=60-79%; 3=40-59%; 2=20-39%; 1=0-19%).

In experiment [2] the test system is Lolium perenne (LOLPE). Described as above. How it is done:
as §1

For experiment [3], the system named is Avena fatua (AVEFA). The description is as above. The method, then:
as §1

The test system of experiment [4] is Echinochloa crus-galli (ECHCG). The experiment is described as above. The method, then: as §1
Experiment [5] concerns Setaria faberi (SETFA). The experiment can be described thus: Glasshouse herbicide test, pre-emergence application. The method, then:
as §1

For experiment [6], the system named is Lolium perenne (LOLPE). The experiment is described as above. The method, then:
as §1

Experiment [7] relates to Avena fatua (AVEFA). The description is as above. The method, then: as §1
Experiment [8] relates to Echinochloa crus-galli (ECHCG). The experiment is described as above. The method, then: as §1

As for `CC#Cc1cc(Cl)c(C2C(=O)CC3(CC2=O)CN(C(C)=O)C3)c(OC)c1` [Compound 1.195], the “percentage damage caused to the plant, five point scale, SETFA” value (“percentage damage caused … SETFA” for short) with Setaria faberi (SETFA) [1] and in the experiment on Setaria faberi (SETFA) [5] was 5 (5=80-100%) each time. Also, the “percentage damage caused to the plant, five point scale, LOLPE” value (from here on “percentage damage caused … LOLPE”) in the experiment with Lolium perenne (LOLPE) [2] and with Lolium perenne (LOLPE) [6] was 5 (5=80-100%) throughout. The “percentage damage caused to the plant, five point scale, AVEFA” value (from here on “percentage damage caused … AVEFA”) with Avena fatua (AVEFA) [3] and in the experiment on Avena fatua (AVEFA) [7] was 5 (5=80-100%) throughout. In addition, the “percentage damage caused to the plant, five point scale, ECHCG” value (from here on “percentage damage caused … ECHCG”) in experiment [4] and in experiment [8] was 5 (5=80-100%) in each case.
Take `CC#Cc1cc(C)c(C2C(=O)CC3(CC2=O)CN(C(=O)c2ccccn2)C3)c(C)c1` [Compound 1.004]: the “percentage damage caused … SETFA” value in the experiment with Setaria faberi (SETFA) [1] and with Setaria faberi (SETFA) [5] was 5 (5=80-100%) throughout. Also, the “percentage damage caused … LOLPE” value in the experiment on Lolium perenne (LOLPE) [2] and with Lolium perenne (LOLPE) [6] was 5 (5=80-100%) in each case. Further, the “percentage damage caused … AVEFA” value in the experiment with Avena fatua (AVEFA) [3] and in the experiment with Avena fatua (AVEFA) [7] was 5 (5=80-100%) in each case. Besides, the “percentage damage caused … ECHCG” value in experiment [4] and in experiment [8] was 5 (5=80-100%) each time.
As for `CC#Cc1cc(C)c(C2C(=O)CC3(CC2=O)CN(C(=O)c2ccccc2)C3)c(C)c1` [Compound 1.003, 2-benzoyl-7-(2,6-dimethyl-4-prop-1-ynyl-phenyl)-2-azaspiro[3.5]nonane-6,8-dione], the “percentage damage caused … SETFA” value with Setaria faberi (SETFA) [1] and in the experiment on Setaria faberi (SETFA) [5] was 5 (5=80-100%) each time. The “percentage damage caused … LOLPE” value in the experiment on Lolium perenne (LOLPE) [2] and in the experiment on Lolium perenne (LOLPE) [6] was 5 (5=80-100%) in each case. Further, the “percentage damage caused … AVEFA” value with Avena fatua (AVEFA) [3] and with Avena fatua (AVEFA) [7] was 5 (5=80-100%) throughout. Also, the “percentage damage caused … ECHCG” value in experiment [4] and in experiment [8] was 5 (5=80-100%) throughout.
Consider `CC#Cc1cc(Cl)c(C2C(=O)CC3(CC2=O)CN(C(=O)c2ccccc2)C3)c(OC)c1` [Compound 1.201], for which the “percentage damage caused … SETFA” value in the experiment on Setaria faberi (SETFA) [1] and in the experiment on Setaria faberi (SETFA) [5] was 5 (5=80-100%) throughout. Besides, the “percentage damage caused … LOLPE” value in the experiment on Lolium perenne (LOLPE) [2] and in the experiment on Lolium perenne (LOLPE) [6] was 5 (5=80-100%) each time. Also, the “percentage damage caused … AVEFA” value in the experiment with Avena fatua (AVEFA) [3] and in the experiment on Avena fatua (AVEFA) [7] was 5 (5=80-100%) each time. The “percentage damage caused … ECHCG” value in experiment [4] and in experiment [8] was 5 (5=80-100%) in each case.
With `CC#Cc1cc(C)c(C2C(=O)CC3(CC2=O)CN(C(=O)NC(=O)c2ccccn2)C3)c(C)c1` [Compound 1.011], the entries for the “percentage damage caused … SETFA” value with Setaria faberi (SETFA) [1] and with Setaria faberi (SETFA) [5] were 5 (5=80-100%) and 3 (3=40-59%), respectively. Also, the figures for the “percentage damage caused … LOLPE” value in the experiment on Lolium perenne (LOLPE) [2] and with Lolium perenne (LOLPE) [6] were 3 (3=40-59%) and 2 (2=20-39%), respectively. In addition, the “percentage damage caused … AVEFA” value with Avena fatua (AVEFA) [3] is 3 (3=40-59%); in the experiment on Avena fatua (AVEFA) [7], 1 (1=0-19%). The “percentage damage caused … ECHCG” value is 3 (3=40-59%) in experiment [4] and 2 (2=20-39%) in experiment [8].
For the molecule `CC#Cc1cc(C)c(C2C(=O)CC3(CC2=O)CN(C(=O)C2CC2)C3)c(OC)c1` [Compound 1.020], the “percentage damage caused … SETFA” value in the experiment with Setaria faberi (SETFA) [1] and with Setaria faberi (SETFA) [5] was 5 (5=80-100%) throughout. Also, the “percentage damage caused … LOLPE” value in the experiment on Lolium perenne (LOLPE) [2] and with Lolium perenne (LOLPE) [6] was 5 (5=80-100%) throughout. For the same molecule, the “percentage damage caused … AVEFA” value in the experiment on Avena fatua (AVEFA) [3] and in the experiment on Avena fatua (AVEFA) [7] was 5 (5=80-100%) each time. The “percentage damage caused … ECHCG” value in experiment [4] and in experiment [8] was 5 (5=80-100%) each time.
Turning to `CC#Cc1cc(C)c(C2C(=O)CC3(CC2=O)CN(C(=O)NC(=O)C(C)(C)C)C3)c(OC)c1` [Compound 1.019], the “percentage damage caused … SETFA” value in the experiment on Setaria faberi (SETFA) [1] is given as 5 (5=80-100%); in the experiment on Setaria faberi (SETFA) [5] it was 4 (4=60-79%). Further, the “percentage damage caused … LOLPE” value is listed as 5 (5=80-100%) in the experiment on Lolium perenne (LOLPE) [2] and 4 (4=60-79%) with Lolium perenne (LOLPE) [6]. The “percentage damage caused … AVEFA” value is on record as 5 (5=80-100%) in the experiment on Avena fatua (AVEFA) [3] and 4 (4=60-79%) with Avena fatua (AVEFA) [7]. Further, the “percentage damage caused … ECHCG” value in experiment [4] is recorded as 4 (4=60-79%); in experiment [8], 5 (5=80-100%).
Regarding `CC#Cc1cc(C)c(C2C(=O)CC3(CC2=O)CN(C(=O)NC(=O)C(C)(C)C)C3)c(C)c1` [Compound 1.007], the “percentage damage caused … SETFA” value in the experiment on Setaria faberi (SETFA) [1] is listed as 4 (4=60-79%); in the experiment on Setaria faberi (SETFA) [5], 5 (5=80-100%). In addition, the “percentage damage caused … LOLPE” value with Lolium perenne (LOLPE) [2] and in the experiment on Lolium perenne (LOLPE) [6] was 5 (5=80-100%) throughout. For the same molecule, the “percentage damage caused … AVEFA” value with Avena fatua (AVEFA) [3] is listed as 4 (4=60-79%); with Avena fatua (AVEFA) [7], 3 (3=40-59%). The “percentage damage caused … ECHCG” value in experiment [4] and in experiment [8] was 5 (5=80-100%) in each case.
Consider `CC#Cc1cc(Cl)c(C2C(=O)CC3(CC2=O)CN(C(=O)C(C)(C)C)C3)c(OC)c1` [Compound 1.202], for which the “percentage damage caused … SETFA” value in the experiment with Setaria faberi (SETFA) [1] and in the experiment on Setaria faberi (SETFA) [5] was 5 (5=80-100%) throughout. In addition, the “percentage damage caused … LOLPE” value in the experiment with Lolium perenne (LOLPE) [2] and with Lolium perenne (LOLPE) [6] was 5 (5=80-100%) each time. The “percentage damage caused … AVEFA” value in the experiment with Avena fatua (AVEFA) [3] and in the experiment on Avena fatua (AVEFA) [7] was 5 (5=80-100%) each time. In addition, the “percentage damage caused … ECHCG” value in experiment [4] and in experiment [8] was 5 (5=80-100%) in each case.
Regarding `COc1cc(-c2ccc(F)cc2)cc(C)c1C1C(=O)CC2(CC1=O)CN(C(C)=O)C2` [Compound 1.203], the “percentage damage caused … SETFA” value in the experiment with Setaria faberi (SETFA) [1] and in the experiment on Setaria faberi (SETFA) [5] was 5 (5=80-100%) in each case. The entries for the “percentage damage caused … LOLPE” value in the experiment with Lolium perenne (LOLPE) [2] and in the experiment with Lolium perenne (LOLPE) [6] were 5 (5=80-100%) and 4 (4=60-79%), respectively. In addition, the “percentage damage caused … AVEFA” value in the experiment with Avena fatua (AVEFA) [3] and in the experiment with Avena fatua (AVEFA) [7] was 5 (5=80-100%) each time. The “percentage damage caused … ECHCG” value in experiment [4] and in experiment [8] was 5 (5=80-100%) throughout.
In the case of `CC#Cc1cc(C)c(C2C(=O)CC3(CC2=O)CN(S(=O)(=O)CC)C3)c(OC)c1` [Compound 1.014], the “percentage damage caused … SETFA” value in the experiment with Setaria faberi (SETFA) [1] and with Setaria faberi (SETFA) [5] was 5 (5=80-100%) each time. The “percentage damage caused … LOLPE” value in the experiment on Lolium perenne (LOLPE) [2] and with Lolium perenne (LOLPE) [6] was 5 (5=80-100%) throughout. Further, the “percentage damage caused … AVEFA” value in the experiment on Avena fatua (AVEFA) [3] and with Avena fatua (AVEFA) [7] was 5 (5=80-100%) each time. In addition, the “percentage damage caused … ECHCG” value in experiment [4] and in experiment [8] was 5 (5=80-100%) throughout.
For the molecule `CC#Cc1cc(C)c(C2C(=O)CC3(CC2=O)CN(C(=O)c2ccccn2)C3)c(OC)c1` [Compound 1.016], the “percentage damage caused … SETFA” value in the experiment on Setaria faberi (SETFA) [1] and in the experiment with Setaria faberi (SETFA) [5] was 5 (5=80-100%) in each case. The “percentage damage caused … LOLPE” value with Lolium perenne (LOLPE) [2] and with Lolium perenne (LOLPE) [6] was 5 (5=80-100%) each time. For the same molecule, the “percentage damage caused … AVEFA” value in the experiment with Avena fatua (AVEFA) [3] and with Avena fatua (AVEFA) [7] was 5 (5=80-100%) each time. In addition, the “percentage damage caused … ECHCG” value in experiment [4] and in experiment [8] was 5 (5=80-100%) throughout.
